Measured values from patent US20240124503A1, “HETEROAROMATIC PHOSPHONIUM SALTS AND THEIR USE TREATING CANCER” (FLORATEK PHARMA S.A., priority 2021, published 2024).

Columns and labels:
Assay type in all cases: cell-based
breast cancer cell = assay: Cell viability, breast cancer cells (panel statement); details: text summary of Tables 4A & 4B; read-out: IC50, breast cancer cell growth
Description: (§1) Antitumor activity of the compounds and doxorubicin as a positive control was assessed by using the CellTiter-Blue Cell Viability Assay (Promega, #G8082) or CellTiter-Glow® Luminescent Cell Viability assay (Promega #G7572) according to the manufacturer's instructions. The compounds were tested at 5 or 6 concentrations in half-log increments (highest concentration 30 μM or 100 μM) in duplicate or triplicate well conditions.
(§2) Tumor cells were grown at 37° C. in a humidified atmosphere with 5% CO2 in RPMI 1640 or DMEM medium, supplemented with 10% (v/v) fetal calf serum and 50 μg/ml gentamicin for up to 20 passages, and were passaged once or twice weekly. Cells were harvested using TrypLE or PBS buffer containing 1 mM EDTA, and the percentage of viable cells was determined using a CASY Model TI cell counter (OMNI Life Science). Cells were harvested from exponential phase cultures, counted and plated in 96 well flat-bottom microtiter plates at a cell density depending on the cell line's growth rate (4,000-20,000 cells/well depending on the cell line's growth rate, up to 60,000 for hematological cancer cell lines) in RPMI 1640 or DMEM medium supplemented with 10% (v/v) fetal calf serum and 50 μg/ml gentamicin (140 μl/well). […] Viability of cells was quantified by the CellTiter-Blue® cell viability assay (Promega G8081) or CellTiter-Glow® Luminescent Cell Viability assay (Promega #G7572). […]

colon PDX = assay: Cell viability, colon PDX (panel statement); details: text summary of Table 7; read-out: IC50, growth of colon PDX
Description: (§3) PDX-derived cell cultures were obtained from tumors explanted from mice and isolated by mechanical and enzymatic dissociation. […] Cells were harvested and seeded in 96-wells plates at a density of 1.25 to 5×10^3 cells/well for cytotoxicity assays. Cells were incubated 48 h at 37° C. prior to addition of test molecules and vehicle (DMSO, 0.1%) at desired final concentrations. Cell viability was assessed before drugs' addition (To) and 5 days after test molecules addition by measuring ATP cell content using CellTiter-Glo® Luminescent Cell Viability Assay (Promega) according to the manufacturer's instructions. Luciferase activity was measured on a luminometer (PerkinElmer® EnVision™). Each concentration of compounds was tested in triplicate.
(§4) Viability was calculated as a percentage of ATP value compared to vehicle treated controls.
(§5) For PDX primary cell cultures, the tumour tissue was washed with PBS containing antibiotic-antimycotic and non-tumour tissue and necrotic tumour tissues were separated. The tumour tissue was transferred to a new dish and cut into 1˜2 mm^3 fragments, resuspended in RPMI-1640 medium and centrifuged at 1,200 rpm for 6 min at room temperature. The pelleted material was resuspended with 15 mL of Tumour Cell Digestion Solution and incubated at 37° C. for 1 hour with agitation. […]

CALU-6 = assay: Cell viability assay, CALU-6; details: Homo sapiens; lung carcinoma cell line CALU-6
Description: as §1, §2

colon cancer cell = assay: Cell viability, colon cancer cells (panel statement); details: summary of Table 6; read-out: IC50, colon cancer cell growth
Description: as §1, §2

bile duct PDX = assay: Cell viability, bile duct PDX (panel statement); details: summary of Table 3; read-out: IC50, bile duct PDX growth
Description: as §3, §4, §5

esophagus PDX = assay: Cell viability, esophagus PDX (panel statement); details: text summary of Table 9; read-out: IC50, esophagus PDX growth
Description: as §3, §4, §5

H69AR = assay: Cell viability assay, H69AR; details: SCLC doxorubicin resistant cell line H69AR
Description: as §1, §2

IC50 (breast cancer cell) [µM] | IC50 (CALU-6) [µM] | IC50 (colon cancer cell) [µM] | SMILES | IC50 (colon PDX) [µM] | IC50 (bile duct PDX) [µM] | IC50 (esophagus PDX) [µM] | IC50 (H69AR) [µM]
< 5 | 2.39 | < 20 | COc1c(O)ccc2c(=O)c(O)c(-c3ccc(CCCC[P+](c4ccccc4)(c4ccccc4)c4ccccc4)cc3)oc12 [SND190, (4-(4-(3,7-Dihydroxy-8-methoxy-4-oxo-4H1-chromen-2-yl)phenyl)butyl)triphenylphosphonium bromide] | < 20 | < 10 | < 20 | 
 |  |  | O=c1cc(-c2ccc(CCC[P+](c3ccccc3)(c3ccccc3)c3ccccc3)cc2)oc2c(O)c(O)ccc12 [SND200, (3-(4-(7,8-Dihydroxy-4-oxo-4H1-chromen-2-yl)phenyl)propyl)triphenylphosphonium bromide] |  |  |  | 4 to 25
